The results in this text go back to ChEMBL document CHEMBL2331448, “Optimization of potent and selective dual mTORC1 and mTORC2 inhibitors: the discovery of AZD8055 and AZD2014” (Bioorg Med Chem Lett, 2013).

A short description of data set [1]: Clearance in human hepatocytes assessed per 10^6 cells. It counts as ADME, cell-based, Hepatocyte. The note with it: read-out: CLH.
Data set [2] can be described thus: Lipophilicity, log D of the compound. It counts as physicochemical. The note with it: octanol/water.
A short description of data set [3]: Clearance in rat at 4 umol/kg, iv. It counts as ADME, organism-based. The note with it: in vivo.
Data set [4] can be described thus: Clearance in CD1 mouse at 10 umol/kg, iv. It counts as ADME, organism-based. The note with it: in vivo.
A short description of data set [5]: Oral bioavailability in CD1 mouse at 20 umol/kg. It counts as ADME, organism-based. The note with it: in vivo.
Data set [6] in a line: Oral bioavailability in rat. The note with it: in vivo.
Data set [7] has as its system MDR1. Kind of data set: Apparent permeability from basolateral to apical side of MDCK2 cells expressing human MDR1 at 10 uM. It counts as ADME, cell-based, Canis lupus familiaris, MDCK-II. The note with it: dog, MDCK-MDR1.
In data set [8] the test system is MDR1. The experiment in a line: Apparent permeability from apical to basolateral side of MDCK2 cells expressing human MDR1 at 10 uM. The format is ADME, cell-based, Canis lupus familiaris, MDCK-II. The note with it: dog, MDCK-MDR1.
A short description of data set [9]: Oral bioavailability in rat at 6 umol/kg. The note with it: in vivo. It counts as ADME, organism-based.
A short description of data set [10]: Clearance in rat at 1 umol/kg, iv. It counts as ADME, organism-based. The note with it: in vivo.

With `CNC(=O)c1cc(-c2ccc3c(N4CCOC[C@@H]4C)nc(N4CCOC[C@@H]4C)nc3n2)ccc1OC`, in [1], the hepatocyte CLint was 14.3 µL/min/1e6 cells.
`C[C@@H]1CN(c2nc(N3CCOC[C@@H]3C)c3ccc(-c4ccccc4)nc3n2)C[C@H](C)O1` gave a log distribution coefficient (logD) in [2] of 3.75.
Still for that read-out and setting: next, `C[C@@H]1CN(c2nc(N3CCOC[C@@H]3C)c3ncc(-c4ccccc4)nc3n2)C[C@H](C)O1`: above 4.
Take `COc1ccc(-c2ccc3c(N4CCOC[C@@H]4C)nc(N4CCOC[C@@H]4C)nc3n2)cc1C(=O)N(C)C`: the hepatocyte CLint in [1] was 4.3 µL/min/1e6 cells.
Still for that read-out and setting: next, `CNC(=O)c1cc(-c2ccc3c(N4CCOC[C@@H]4C)nc(N4CCOC[C@@H]4C)nc3n2)ccc1OC(F)F`: 14.9 µL/min/1e6 cells.
`CNC(=O)c1cccc(-c2ccc3c(N4CCOC[C@@H]4C)nc(N4CCOC[C@@H]4C)nc3n2)c1` [VISTUSERTIB]: the clearance in data set [3] is 12.6 mL/min/kg; in [4] it was 10.4 mL/min/kg. The bioavailability in [5] was above 100%; in data set [6] it was 40%. Moreover, in data set [1], the hepatocyte CLint is below 4.2 µL/min/1e6 cells. Besides, the logD in data set [2] is 3.16.
For the compound `C[C@H]1COCCN1c1nc(N2CCOC[C@@H]2C)c2ccc(-c3ccc4nc[nH]c(=O)c4c3)nc2n1`, the hepatocyte CLint in data set [1] turned out to be 176 µL/min/1e6 cells.
Regarding `COc1ccc(-c2ccc3c(N4CCOCC4)nc(N4C[C@@H](C)O[C@@H](C)C4)nc3n2)cc1CO` [Ku-0063794], in the data set with MDR1 [7], the Papp B→A at 10 µM was determined as 15 ×10⁻⁶ cm/s. The Papp A→B at 10 µM in the data set with MDR1 [8] is 2.6 ×10⁻⁶ cm/s. Moreover, the bioavailability in data set [9] turned out to be 33%; in data set [5], 61%. The clearance in [10] came to 35.8 mL/min/kg; in data set [4] it was 3.1 mL/min/kg.
In the case of `COc1ccc(-c2ccc3c(N4CCOCC4)nc(N4C[C@@H](C)O[C@@H](C)C4)nc3n2)cc1CNCCO`, the basolateral-to-apical permeability (Papp B→A) at 10 µM with MDR1 [7] turned out to be 16.6 ×10⁻⁶ cm/s. For the same compound, the Papp A→B at 10 µM in the data set on MDR1 [8] came out at 45.3 ×10⁻⁶ cm/s.
On to `COc1ccc(-c2ccc3c(N4CCOC[C@@H]4C)nc(N4CCOC[C@@H]4C)nc3n2)cc1C(C)O` (some centres undefined), for which the hepatocyte CLint in data set [1] worked out at 37.8 µL/min/1e6 cells.
On the same count and under the same terms, next, `C[C@H]1COCCN1c1nc(N2CCOC[C@@H]2C)c2ccc(-c3cccc(C(=O)NCCO)c3)nc2n1`: below 5.4 µL/min/1e6 cells.
For `COc1ccc(-c2ccc3c(N4CCOC[C@@H]4C)nc(N4CCOC[C@@H]4C)nc3n2)cc1CO` [AZD-8055], the clearance in [3] is 36.6 mL/min/kg; in data set [4], 42.8 mL/min/kg. Besides, the bioavailability in [5] is 81%; in data set [6], 12%. Moreover, the hepatocyte CLint in data set [1] worked out at 36.4 µL/min/1e6 cells. Besides, in [2], the log distribution coefficient (logD) is 3.23.
Regarding `COc1ccc(-c2ccc3c(N4CCOC[C@@H]4C)nc(N4CCOC[C@@H]4C)nc3n2)cc1C(N)=O`, the hepatocyte CLint in data set [1] was determined as 33.2 µL/min/1e6 cells.
